Results reported in PubChem BioAssay AID1117319 (Southern Research Institute, 2015).
Records with an inconclusive call do not appear.

biological target: Virion infectivity factor (Human immunodeficiency virus type 1 group M subtype B (isolate BH10)) + Virion infectivity factor (Human immunodeficiency virus type 1 group M subtype B (isolate BRU/LAI)) + Virion infectivity factor (Human immunodeficiency virus type 1 group M subtype B (isolate PCV12)) + Virion infectivity factor (Human immunodeficiency virus type 1 group M subtype B (isolate HXB2)) + DNA dC->dU-editing enzyme APOBEC-3G (Homo sapiens) (UniProt P69720+P69721+P69722+P69723+Q9HC16); assay: inhibitors of Vif binding to APOBEC3G peptide, primary screen, biochemical, TR-FRET, GST-Vif 1-94, biotin-A3G peptide, dose response retest (AID 1117319);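 further: Vif residues 1-94 fused to GST binding biotinylated APOBEC3G peptide 110-148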

Row | Structure (SMILES) | IC50 [µM]
1 | CNc1ccc(Br)cc(C(=O)/C=C/c2ccc(Cl)cc2Cl)c1=O | 9.23
2 | O=C(NN1C(=O)/C(=C/C=C/c2ccco2)SC1=S)c1ccncc1 | 2.37
3 | CC(C)N1C(=O)/C(=C/C=C/c2ccco2)C(=O)N(Cc2ccco2)C1=O | 2.19
4 | COc1ccc(O)c(N)c1 | 0.93
5 | O=C1/C(=C/C=C/c2ccco2)SC(=S)N1NS(=O)(=O)c1ccccc1 | 2.9
6 | CCc1ccc(S(=O)(=O)/N=C2\C=CC(=O)c3ccccc32)cc1 | 8.1
7 | Cc1cc(C(=O)CSc2nc3ccccc3c(=O)[nH]2)c(C)n1C | 31.6
8 | O=C(/C=C/Nc1ccccc1Br)c1ccccn1 | 41.5
9 | O=C(c1ccccc1Br)N1CCN(c2ccccc2)CC1 | 38.7
10 | COc1cc2c3c(c1OC)C1(C=CC(=O)C=C1)CC3N(C(=O)CCC(=O)O)CC2 (configuration not stated) | 13.3
11 | CCOC(=O)c1c2c(n(Cc3ccccc3)c1C)C(=O)C(=O)c1ccccc1-2 | 79.5
12 | S=c1[nH]nc(-c2cccnc2)n1/N=C/C=C/c1ccco1 | 3.97
13 | COc1cccc(=O)c2c(C)n(-c3ccc(C(=O)O)cc3)c(C)c12 | 3.22
14 | O=C(CN1CCN(S(=O)(=O)c2ccc(Cl)s2)CC1)NCc1ccc(Cl)cc1 | 7.67
15 | O=C1NC(c2ccc(Br)cc2)=N/C1=C/c1ccco1 | 7.41
16 | CC1=C(C(=O)Nc2ccccc2)C(c2ccc(C)o2)n2c(s/c(=C\c3ccco3)c2=O)=N1 (configuration not stated) | 5.34
17 | Cc1c(C(=O)N2CCN(c3ccccc3F)CC2)sc2nc(-c3ccccc3)cn12 | 93
18 | COc1cc(CNCCc2ccc(F)cc2)ccc1OCc1ccc(Cl)nc1 | 3.18
19 | Cc1ccc(N/N=C/c2c(C)c(C#N)c(=O)n(C)c2O)cc1C | 91.3

Row | Structure (SMILES) | IC50 [µM]
20 | CCNC(=O)COC(=O)c1cc(-c2ccco2)nc2ccccc12 | 3.93
21 | O=C(NNC(=O)c1ccccc1O)c1cc2ccccc2o1 | 16.5
22 | Cc1ccc(Nc2ccc(N)cc2S(=O)(=O)O)cc1 | 32
23 | Cc1nc2cc(N=NC3=C(O)CCCC3=O)ccc2s1 | 1.28
24 | CCC(C)C(NC(=O)[C@@H](NC(=O)c1ccccc1F)C(C)C)C(=O)OC (some centres not stated) | 5.83
25 | O=C1C2C3CCCC3=C3CCCC3C2C(=O)N1c1ccccc1 (configuration not stated) | 3.44
26 | C=CCn1c(Sc2nc(C)cs2)nc2c1c(=O)[nH]c(=O)n2C | 94.2
27 | Cc1ccc(/C=C/C2=Cc3c(sc(NC(=O)CSc4n[nH]c(N)n4)c3C#N)C(C)(C)C2)o1 | 0.8
28 | O=C(Nc1ccc(F)cc1)C(c1ccccc1)N1CCN(S(=O)(=O)c2ccc3ccccc3c2)CC1 (configuration not stated) | 13.5
29 | COc1ccccc1CNC(=O)COC(=O)c1cc(-c2ccco2)nc2ccccc12 | 9.99
30 | Oc1ccc(-c2cn3c(n2)SCC3)cc1O | 1.11
31 | CCOC(=O)C1=C(N)n2c(s/c(=C\c3ccco3)c2=O)=C(C(=O)OCC)C1c1ccco1 (configuration not stated) | 1.41
32 | O=C1CC(SC(=S)C2CCCC2=O)C(=O)N1 (configuration not stated) | 27.8
33 | N#C/C(=C/c1ccc(N2CCCCCC2)o1)c1cccc(F)c1 | 24.6
34 | O=[N+]([O-])c1cc(/C=N\Nc2nccs2)ccc1O | 1.62
35 | CC(/C=C1\SC(=S)N(CCCC(=O)Nc2ccc(C(=O)O)c(O)c2)C1=O)=C\c1ccccc1 | 5.1
36 | Cc1[nH]c2ccccc2c1C1=CC(=O)C=CC1=O | 4.25
37 | CC(C)N1C(=O)CC(Nc2ccc(N3CCOCC3)cc2)C1=O (configuration not stated) | 2.9
38 | O=C(CSc1nc2ccccc2n1CCc1ccccc1)c1ccc(O)c(O)c1 | 2.14

Row | Structure (SMILES) | IC50 [µM]
39 | COc1cc(-c2ccc(Nc3ccccc3C(=O)O)c(OC)c2)ccc1Nc1ccccc1C(=O)O | 0.94
40 | CCOC(=O)C(C(=O)OCC)c1cc(Br)c2noc3c2c1C(=O)c1ccccc1-3 | 2.45
41 | Nc1cc(N)c(OCC(F)(F)F)cc1OCC(F)(F)F | 9.47
42 | COc1ccc(S(=O)(=O)N(C(C)=O)c2ccc3oc(=O)sc3c2)cc1 | 88.4
43 | Cc1ccsc1C=Nc1ccc(O)cc1 | 17.1
44 | CN(C)c1ccc(C=c2c3cc([N+](=O)[O-])ccc3n3c2cc(-c2ccccc2)[n+]3C)cc1 | 3.58
45 | O=[N+]([O-])c1c(Nc2ccccc2O)cc(Cl)c2nonc12 | 9.34
46 | O=CN/C=C/c1cc(O)ccc1O | 1.72
47 | CCOc1cccc(CNc2ccc(O)cc2)c1OCc1ccccc1Cl | 6.61
48 | Cc1cccc2c1c1ccc3c(c1n2C)C(=O)C=CC3=O | 7.63
49 | C=C(C)C(=O)Nc1cccc(C2=NOC3(C2)C[C@H](C(N)=O)N(C(=O)COc2ccc(Cl)cc2)C3)c1 (some centres not stated) | 1.28
50 | N=C(N)c1ccc(N=Nc2c(O)ccc3c2[nH]c2ccccc23)cc1 | 3.87
51 | CCC1=NN2C(=N)/C(=C\c3cccn3-c3cccc(Cl)c3)C(=O)N=C2S1 | 94.9
52 | O=C(N/N=C/C=C/c1ccco1)c1cccs1 | 7.15
53 | CCN(CC(=O)Nc1c(C(=O)OC)[nH]c2ccccc12)c1ccc2c(c1)OCO2 | 5.84
54 | Cc1cc(/C=N/Nc2ccc([N+](=O)[O-])cn2)c(C)n1-c1ccc(C(=O)O)cc1 | 3.25
55 | CC1Cc2ccccc2N1Cc1cc(=O)n2ccsc2n1 (configuration not stated) | 7.03
56 | O=C(NCCCO)Nc1ccc2nc(-c3ccco3)c(-c3ccco3)nc2c1 | 0.26
57 | O=C1/C(=C/c2ccco2)SC(=S)N1c1cccnc1 | 1.49
